In US20230111310A1, “CARBOXYLIC ACID DERIVATIVE-SUBSTITUTED IMINO ARYL COMPOUND, PREPARATION METHOD THEREFOR, HERBICIDAL COMPOSITION AND USE THEREOF” (Qingdao Kingagroot Chemical Compound Co., Ltd., priority 2020, published 2023):

Columns and labels:
Type in all cases: in vivo
[1] = test system: Echinochloa crusgalli; experiment: Weeding effect in post-emergence stage; conditions: Dose 15 g/ha; for Weeding effect in post-emergence stage, Echinochloa crusgalli: level of fresh weight growth control rate
How it was run: (§1)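 Pot-grown weeds were sprayed at the 2-3 leaf stage, 2 weeks after sowing, with compound in acetone plus Tween 80 and 1.5 liter/ha methyl oleate emulsifiable concentrate, diluted in water. Doses were 500, 250, 125, 60, 30, 15, 7.5 g/ha. Growth control was scored after 3 weeks in greenhouse; mean of three replicates.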

[2] = test system: Soybeans; experiment: Pre-emergence stage, crop selectivity; conditions: 30 g/ha, 4 weeks
Method: (§2) The activity level criteria for plant damage (i.e., growth control rate) are as follows:
(§3) The aforementioned seeds of monocotyledonous and dicotyledonous weeds and main crops were put into a plastic pot loaded with soil and covered with 0.5-2 cm soil. The test compounds of the present invention was dissolved with acetone, then added with tween 80, diluted by a certain amount of water to reach a certain concentration, and sprayed immediately after sowing. The obtained seeds were incubated for 4 weeks in the greenhouse after spraying and the test results were observed. It was observed that the herbicide mostly had excellent effect at the application rate of 500, 250, 125, 60, 30, 15, 7.5 g/ha, especially to weeds such as Echinochloa crusgalli. Digitaria sanguinalis and Abutilon theophrasti, etc. And many compounds had good selectivity for corn, cotton, wheat, rice, soybean, and peanut etc. In addition, evaluate the weed control effect with the above activity standard level.

[3] = test system: cotton; experiment: Pre-emergence stage, crop selectivity; conditions: 30 g/ha, 4 weeks
Method: as §2, §3

[4] = test system: corn; experiment: Pre-emergence stage, crop selectivity; conditions: 30 g/ha, 4 weeks
Method: as §2, §3

[5] = test system: Peanut; experiment: Pre-emergence stage, crop selectivity; conditions: 30 g/ha, 4 weeks
Method: as §2, §3

[6] = test system: Setaria viridis; experiment: Weeding effect in post-emergence stage; conditions: Dose 15 g/ha; for Weeding effect in post-emergence stage, Setaria viridis: level of fresh weight growth control rate
How it was run: as §1

[7] = test system: Digitaria sanguinalis; experiment: Weeding effect in post-emergence stage; conditions: Dose 15 g/ha; for Weeding effect in post-emergence stage, Digitaria sanguinalis: level of fresh weight growth control rate
How it was run: as §1

[8] = test system: Eleusine indica; experiment: Weeding effect in post-emergence stage; conditions: Dose 15 g/ha; for Weeding effect in post-emergence stage, Eleusine indica: level of fresh weight growth control rate
How it was run: as §1

[9] = test system: Abutilon theophrasti; experiment: Weeding effect in post-emergence stage; conditions: Dose 15 g/ha; for Weeding effect in post-emergence stage, Abutilon theophrasti: level of fresh weight growth control rate
How it was run: as §1

[10] = test system: Alopecurus japonicus; experiment: Weeding effect in post-emergence stage; conditions: Dose 15 g/ha; for Weeding effect in post-emergence stage, Alopecurus japonicus: level of fresh weight growth control rate
How it was run: as §1

[11] = test system: Descurainia sophia; experiment: Weeding effect in pre-emergence stage; conditions: 30 g/ha, 4 weeks
Method: as §2, §3

[12] = test system: Amaranthus retroflexus; experiment: Weeding effect in pre-emergence stage; conditions: 30 g/ha, 4 weeks
Method: as §2, §3

[13] = test system: Setaria viridis; experiment: Weeding effect in pre-emergence stage; conditions: 30 g/ha, 4 weeks
Method: as §2, §3

[14] = test system: Capsella bursa-pastoris; experiment: Weeding effect in pre-emergence stage; conditions: 30 g/ha, 4 weeks
Method: as §2, §3

[15] = test system: Veronica didyma Tenore; experiment: Weeding effect in pre-emergence stage; conditions: 30 g/ha, 4 weeks
Method: as §2, §3

[16] = test system: Abutilon theophrasti; experiment: Weeding effect in pre-emergence stage; conditions: 30 g/ha, 4 weeks
Method: as §2, §3

[17] = fresh weight control rate level

Row | SMILES | Weeding effect in post-emergence stage, Echinochloa crusgalli [1] | plant damage level Soybeans [2] | plant damage level Cotton [3] | plant damage level Corn [4] | plant damage level Peanut [5] | Weeding effect in post-emergence stage, Setaria viridis [6] | Weeding effect in post-emergence stage, Digitaria sanguinalis [7] | Weeding effect in post-emergence stage, Eleusine indica [8] | Weeding effect in post-emergence stage, Abutilon theophrasti [9] | Weeding effect in post-emergence stage, Alopecurus japonicus [10] | activity level (growth control rate) Descurainia sophia [11] | activity level (growth control rate) Amaranthus retroflexus [12] | activity level (growth control rate) Setaria viridis [13] | activity level (growth control rate) Capsella bursa-pastoris [14] | activity level (growth control rate) Veronica didyma Tenore [15] | activity level (growth control rate) Abutilon theophrasti [16] | also measured
1 | C[C@@H](O/N=C/c1cc(-n2c(=O)cc(C(F)(F)F)n(C)c2=O)c(F)cc1Cl)C(=O)OCCF [216(R)] | 5 (Level 5: growth control rate is above 85%) | 0 (Level 0: growth control rate is less than 5%) | 0 (Level 0: growth control rate is less than 5%) | 0 (Level 0: growth control rate is less than 5%) | 0 (Level 0: growth control rate is less than 5%) | 5 (Level 5: growth control rate is above 85%) | 5 (Level 5: growth control rate is above 85%) | 5 (Level 5: growth control rate is above 85%) | 5 (Level 5: growth control rate is above 85%) | 4 (Level 4: growth control rate is greater than or equal to 60% and less than 85%) | 5 (Level 5: growth control rate is above 85%) | 5 (Level 5: growth control rate is above 85%) | 5 (Level 5: growth control rate is above 85%) | 5 (Level 5: growth control rate is above 85%) | 5 (Level 5: growth control rate is above 85%) | 5 (Level 5: growth control rate is above 85%) | –
2 | COC(=O)[C@@H](C)O/N=C/c1cc(-n2c(=O)c(Cl)c(C(F)(F)F)n(C)c2=O)c(F)cc1Cl [431(R)] | – | 0 (Level 0: growth control rate is less than 5%) | 0 (Level 0: growth control rate is less than 5%) | 0 (Level 0: growth control rate is less than 5%) | 0 (Level 0: growth control rate is less than 5%) | – | – | – | – | – | 5 (Level 5: growth control rate is above 85%) | 5 (Level 5: growth control rate is above 85%) | 5 (Level 5: growth control rate is above 85%) | 5 (Level 5: growth control rate is above 85%) | 5 (Level 5: growth control rate is above 85%) | 5 (Level 5: growth control rate is above 85%) | Weeding effect in post-emergence stage, Echinochloa crusgalli (level) [1, 17]: 5 (Level 5: growth control rate is above 85%); Weeding effect in post-emergence stage, Setaria viridis (level) [6, 17]: 5 (Level 5: growth control rate is above 85%); Weeding effect in post-emergence stage, Digitaria sanguinalis (level) [7, 17]: 5 (Level 5: growth control rate is above 85%); Weeding effect in post-emergence stage, Eleusine indica (level) [8, 17]: 5 (Level 5: growth control rate is above 85%); Weeding effect in post-emergence stage, Abutilon theophrasti (level) [9, 17]: 5 (Level 5: growth control rate is above 85%); Weeding effect in post-emergence stage, Alopecurus japonicus (level) [10, 17]: 5 (Level 5: growth control rate is above 85%)
3 | COC/C(C)=N/OC(=O)[C@@H](C)O/N=C/c1cc(-n2c(=O)cc(C(F)(F)F)n(C)c2=O)c(F)cc1Cl [253(R)] | 5 (Level 5: growth control rate is above 85%) | 0 (Level 0: growth control rate is less than 5%) | 0 (Level 0: growth control rate is less than 5%) | 0 (Level 0: growth control rate is less than 5%) | 0 (Level 0: growth control rate is less than 5%) | 5 (Level 5: growth control rate is above 85%) | 5 (Level 5: growth control rate is above 85%) | 5 (Level 5: growth control rate is above 85%) | 5 (Level 5: growth control rate is above 85%) | 5 (Level 5: growth control rate is above 85%) | 5 (Level 5: growth control rate is above 85%) | 5 (Level 5: growth control rate is above 85%) | 5 (Level 5: growth control rate is above 85%) | 5 (Level 5: growth control rate is above 85%) | 5 (Level 5: growth control rate is above 85%) | 5 (Level 5: growth control rate is above 85%) | –
4 | C[C@@H](O/N=C/c1cc(-n2c(=O)cc(C(F)(F)F)n(C)c2=O)c(F)cc1Cl)C(=O)ON=C1CCCC1 [258(R)] | 5 (Level 5: growth control rate is above 85%) | 0 (Level 0: growth control rate is less than 5%) | 0 (Level 0: growth control rate is less than 5%) | 0 (Level 0: growth control rate is less than 5%) | 0 (Level 0: growth control rate is less than 5%) | 5 (Level 5: growth control rate is above 85%) | 5 (Level 5: growth control rate is above 85%) | 5 (Level 5: growth control rate is above 85%) | 5 (Level 5: growth control rate is above 85%) | 4 (Level 4: growth control rate is greater than or equal to 60% and less than 85%) | 5 (Level 5: growth control rate is above 85%) | 5 (Level 5: growth control rate is above 85%) | 5 (Level 5: growth control rate is above 85%) | 5 (Level 5: growth control rate is above 85%) | 5 (Level 5: growth control rate is above 85%) | 5 (Level 5: growth control rate is above 85%) | –
5 | C=CCOC(=O)[C@@H](C)O/N=C/c1cc(-n2c(=O)cc(C(F)(F)F)n(C)c2=O)c(F)cc1Cl [208(R)] | 5 (Level 5: growth control rate is above 85%) | 0 (Level 0: growth control rate is less than 5%) | 0 (Level 0: growth control rate is less than 5%) | 0 (Level 0: growth control rate is less than 5%) | 0 (Level 0: growth control rate is less than 5%) | 5 (Level 5: growth control rate is above 85%) | 5 (Level 5: growth control rate is above 85%) | 5 (Level 5: growth control rate is above 85%) | 5 (Level 5: growth control rate is above 85%) | 5 (Level 5: growth control rate is above 85%) | 5 (Level 5: growth control rate is above 85%) | 5 (Level 5: growth control rate is above 85%) | 5 (Level 5: growth control rate is above 85%) | 5 (Level 5: growth control rate is above 85%) | 5 (Level 5: growth control rate is above 85%) | 5 (Level 5: growth control rate is above 85%) | –
